Assay results from patent publication US10537575B2, “Phosphodiesterase inhibitors to repair brain and/or retinal injury in human newborns” (priority 2016, dated 2020).

What was measured:
[1] = oral sildenafil; known; cited from earlier work
[2] = test system: Long-Evans rat pups (term neonatal HIE model); assay: Endothelial cells count (lectin staining) at P30; type: in vivo; settings: HI, not significant
Procedure: Using the third slide prepared for each animal, an immunohistochemistry was used to assess the endothelial cells count. Sections were labeled with lectin (biotinylated isolectin B4) (Sigma-Aldrich: L2140, St-Louis, Mo., USA) (dilution 20 μg/mL in 0.1M tris-buffered saline [pH 7.4] and 0.5% Triton X-100, incubation time 2 hours at room temperature) (Springer M L et al., 2010). To detect lectin binding, the sections were incubated with streptavidin Alexa Fluor® 350 conjugate (Molecular Probes®, Life Technologies: S11249, Carlsbad, Calif., USA) dilution 1:300 in tris-buffered saline, incubation time 2 hours at room temperature (Ndode-Ekane X E et al., 2010). Then, these sections were rinsed with tris-buffered saline and cover slipped with Vectashield Mounting media containing 4,6-diamidino-2-phenylindole (DAPI) (Vector Laboratories: H1200, Burlingame, Calif., USA) to visualize cell nuclei (Ndode-Ekane X E et al., 2010; Hallene K L et al., 2006). The endothelial cells count was assessed as per previously described methods (Hallene K L et al., 2006, Iwai M et al., 2007; Noguchi T et al., 2008; Rigau V et al., 2007; Wintermark P et al., 2013). Cells co-labeled with lectin and DAPI were identified as endothelial cells (Springer M L et al., 2010; Hallene K L et al., 2006). To estimate the density of microvessels, single immunoreactive endothelial cells were counted as individual microvessels; endothelial staining in large vessels with tunica media were disregarded in the microvessel counts (Hallene K L et al., 2006, Iwai M et al., 2007; Noguchi T et al., 2008; Rigau V et al., 2007; Wintermark P et al., 2013; Shaikh H et al., 2015). […] One investigator took pictures of the respective fields of view at 10× magnification.

[3] = test system: Long-Evans rat pups (term neonatal HIE model); assay: Neurons count (NeuN) in cortex at P30; type: in vivo; settings: HI; for neuronal number near the infarct boundary zone, median (IQR): ipsilateral cortex
Procedure: Using the second slide prepared for each animal, an immunohistochemistry was performed to examine the number of mature neurons. Neurons were labeled with an anti-neuronal nuclei (NeuN) antibody (Millipore: MAB377, Billerica, Mass., USA) (dilution 1:500, incubation time 1 hour at room temperature) (Hendrickson M L et al., 2011). Sections then were incubated with the secondary antibody Alexa Fluor® 488 goat anti-rabbit IgG (Molecular Probes®, Life Technologies: A11034, Carlsbad, Calif., USA) (dilution 1:1000, incubation time 2 hours at 4° C.). These sections were rinsed with tris-buffered saline and cover slipped with Vectashield Mounting media containing 4,6-diamidino-2-phenylindole (DAPI) (Vector Laboratories: H1200, Burlingame, Calif., USA) to visualize cell nuclei. Cells co-labeled with NeuN and DAPI were identified as neurons. […] One investigator took pictures of the respective fields of view at 10× magnification.

[4] = Body weight and animal deaths in Vannucci rat model of term neonatal HIE
Procedure: A well-established Vannucci rat model of term neonatal HIE, which combined a left common carotid artery ligation and a 2 hour exposure to hypoxia (8% oxygen) in 10-day-old (P10) rat pups, was used for the experiments, since this model is generally recognized to mimic the brain injuries observed in human term asphyxiated newborns. Briefly, the 10-day-old male Long-Evans rat pups were weighed and then deeply anesthetized with an intraperitoneal injection of fentanyl (0.2 mg/kg) and midazolam (1 mg/kg) to the point of unresponsiveness to noxious stimulation. Lidocaine-prilocaine cream (EMLA®; AstraZeneca Inc.) was applied to the ventral neck skin 30 minutes before surgery. The skin was cleaned with 2% chlorhexidine solution followed by 70% alcohol. A vertical incision was made along the ventral surface of the neck. The left common carotid artery was located, isolated, and then ligated with a single tight suture. Following the unilateral ligation, the skin incision was closed with an adhesive (n-butyl cyanoacrylate; 3 M VetBond Tissue Adhesive®; 3 M USA). The anesthesia was reversed with an intraperitoneal injection of naloxone (0.1 mg/kg) and flumazenil (1 mg/kg). […] For each rat pup, anesthesia time and surgical time were kept to a minimal time of less than 5-10 minutes. The pups were allowed to recover for approximately 1.5 h after surgery and then were placed in a sealed hypoxia chamber (Plastic Concepts, North Billerica, USA). The sealed chamber was infused with nitrogen until a level of 8% oxygen was reached, which was maintained for 2 h (oxygen analyzer model 600, Engineered Systems & Designs, Newark, Del.). The pups were allowed to recover for 30 minutes and then were returned to their cages with the mother. The rats undergoing the whole procedure were considered as the hypoxic-ischemic (HI) group (n=10-12 animals/groups). Sham operated rat pups (identical procedure as the HI group, but not the ligation and hypoxia) served as the control group (n=10-12 animals/groups). The sample size of the current study was a sample size of convenience, subject to restrictions imposed by the institutional ethics committee that reviewed it, and based on the principles of the 3Rs (replacement, reduction, and refinement). Sham rat pups received the same sedation as HI rat pups permitting to control for the effect of sedation on the brain. Normal body temperature of both sham and HI rat pups, while they were separated from the mother, was maintained during the whole procedure (i.e., surgery±hypoxia) using warming blankets (Cincinnati Sub-Zero, Cincinnati, USA).

[5] = test system: Sprague-Dawley rats (rat model of ROP); assay: Flash electroretinograms in rat model of ROP (hyperoxia); type: in vivo; settings: sildenafil 50 mg/kg per os twice daily P15 to P21, P29, p<0.05
Procedure: (§1) Sprague-Dawley rats were exposed to hyperoxia (i.e., 80% oxygen) interrupted by three 0.5-hour periods of normoxia (i.e., 21% oxygen) per day or room air only (i.e., 21% oxygen) from post-natal day 4 (P4) to 14 (P14). Pups were then housed in room air. […] Flash electroretinograms were recorded at P29 to assess the retinal function. At P31, retinas were extracted, sectioned and stained with toluidine blue to measure the thicknesses of the different retinal layers.

[6] = test system: Sprague-Dawley rats (rat model of ROP); assay: Retinal layer thickness in rat model of ROP (hyperoxia); type: in vivo; settings: ROP animals; sildenafil 50 mg/kg per os twice daily P15 to P21; P31; p<0.05
Procedure: as §1

Structure (SMILES): CCCc1nn(C)c2c(=O)[nH]c(-c3cc(S(=O)(=O)N4CCN(C)CC4)ccc3OCC)nc12 [sildenafil]
- oral bioavailability [1]: good oral bioavailability
- endothelial cells number, median (IQR) ([2]; sildenafil 2 mg/kg): 230 (158; 273) endothelial cells/mm^2
- endothelial cells number, median (IQR) ([2]; sildenafil 10 mg/kg (first mention, medium-dose)): 196 (157; 225) endothelial cells/mm^2
- endothelial cells number, median (IQR) ([2]; sildenafil 10 mg/kg as printed (second mention, third of low/medium/high)): 193 (151; 217) endothelial cells/mm^2
- neuronal number near the infarct boundary zone, median (IQR) ([3]; high-dose sildenafil, p<0.001): 1368 (1292; 1444) neurons/mm^2
- neuronal number in corresponding region of contralateral cortex, median (IQR) ([3]; high-dose sildenafil, p<0.001): 1019 (948; 1106) neurons/mm^2
- neuronal number in corresponding region of contralateral cortex, median (IQR) ([3]; low-dose sildenafil, not significant): 808 (586; 963) neurons/mm^2
- neuronal number in corresponding region of contralateral cortex, median (IQR) ([3]; medium-dose sildenafil, p<0.001): 999 (930; 1107) neurons/mm^2
- neuronal number near the infarct boundary zone, median (IQR) ([3]; sildenafil 2 mg/kg, p<0.01): 1118 (1069; 1238) neurons/mm^2
- neuronal number near the infarct boundary zone, median (IQR) ([3]; sildenafil 10 mg/kg, p<0.001): 1222 (1170; 1338) neurons/mm^2
- incidence of animal deaths ([4]; HI group, sildenafil 2 mg/kg): 4/12
- incidence of animal deaths ([4]; HI group, sildenafil 10 mg/kg): 2/11
- incidence of animal deaths ([4]; HI group, sildenafil 50 mg/kg): 3/11
- incidence of animal deaths ([4]; sham groups): no animals died
- scotopic and photopic b-wave amplitudes [5]: improvement in scotopic and photopic b-wave amplitudes
- OPL thickness [6]: improved OPL thickness
